Data taken from patent publication US10947243B2, “Heteroaryl SYK inhibitors” (Boehringer Ingelheim International GmbH, priority 2014, dated 2021).

Columns and labels:
[1] = biological target: Recombinant human Aurora B (amino acids 1-344) (Homo sapiens (Human), UniProt Q96GD4); experiment: Aurora B Kinase Test (ADP Glo luminescence); type: biochemical; details: comparison compounds, Example numbers of WO 2013/014060; read-out: IC50 in μM (AURB-Inhibition)
Experimental: The activity of the Aurora B kinase protein was determined using the ADP Glo® Luminescence Kinase test (Promega; V9103X).
Serial Dilution is done in 1:10 steps in 100% DMSO.
Then 20 μl Kinase detection mix (Detection Buffer #V913B Promega; Kinase Detection Substrate #V914B Promega) were added and incubated for 40 minutes at room temperature.
(§1) The output file of the reader is a csv file that contains the well number and measured RLU. For data evaluation and calculation, the measurement of the negative control was set as 0% ctrl and the measurement of the positive control was set as 100% ctrl. Based on this values the % value for the measurement of each substance concentration was calculated using an Assay Explorer software (Accelrys). Normally, the % ctrl values calculated are between 0% and 100% values but may also occur outside these limits in individual cases based on variability or compound characteristics. The IC50 values were calculated from the % ctrl values using Assay Explorer software. Calculation: [y=(a−d)/(1+(x/c)^b)+d], a=low value, d=high value; x=conc M; c=IC50 M; b=hill; y=% ctrl.

FLT3 = FLT3 (Homo sapiens (Human), UniProt P36888); experiment: FLT3 Kinase Test (Z'-LYTE); type: biochemical; details: comparison compounds, Example numbers of WO 2013/014060; read-out: IC50 in μM (FLT3-Inhibition)
Experimental: The activity of FLT3 is measured using the Z′-LYTE™ assay technology from Invitrogen (#PV3191)
The reaction is started by addition of 2.5 μl of the 4×ATP solution.
(§2) Positive controls are reaction mixtures containing no test compound; negative controls (blanks) are reaction mixtures containing no kinase. As a further control, the phosphopeptide solution is added to wells without kinase (=100% phosphorylation control).
The reaction is performed for 1 h at room temperature before 5 μl of the development solution is added. After a further incubation for 1 h at room temperature 5 μl of the stop reagent is added.
The output text file is evaluated in an “MS-Excel-VB-Makro” and “GraphPadPrism” (Version 5) (GraphPad Software Inc.) is used to calculate the results. Data for the inhibition of FLT3 are reported in M. data for the inhibition of the protease are reported in % CTL.

[2] = Human Liver Microsomal Stability Test; type: in vitro ADME; details: human liver microsomes; comparison compounds, Example numbers of WO 2013/014060
Experimental: The metabolic degradation for a specific SYK-inhibitor is performed at 37° C. with pooled human liver microsomes (human liver microsomes are commercially available as “BD UltraPool™” by Corning Life Sciences, Fogostraat 12, 1060 LJ Amsterdam, The Netherlands). The final incubation volume of 100 μl per time point contains TRIS buffer pH 7.6 at RT (0.1 M), magnesium chloride (5 mM), microsomal protein (1 mg/ml) and the test compound at a final concentration of 1 μM.
Following a short preincubation period at 37° C., the reaction is initiated by addition of beta-nicotinamide adenine dinucleotide phosphate in its reduced form (NADPH, 1 mM) and terminated by transfering an aliquot into solvent after different time points. Additionally, the NADPH-independent degradation is monitored in incubations without NADPH, terminated at the last time point.
The quenched (terminated) incubations are then pelleted by centrifugation (10000 g, 5 min).
An aliquot of the supernatant is assayed by LC-MS/MS for the remaining amount of parent compound. The half-life (t½ INVITRO) is determined by the slope of the semilogarithmic plot of the concentration-time profile.
The intrinsic clearance (CL_[…]) is calculated by considering the amount of protein in the incubation: CL_[…] [μl/min/mg protein]=(Ln 2/(t½INVITRO [min]*protein content [mg/ml]))*1000
The protein content [mg/ml] was determined with the “Bicinchoninic Acid Kit” of Sigma Aldrich (commercially available).
The upscaled intrinsic Clearance (CL_UP_INT) is calcuated by considering the liver weight [g liver/kg body weight] and the microsomal recovery [mg protein/g liver]: CL_UP_INT [ml/min/kg]=0.001*CL_[…]*liver weight*microsomal recovery • with microsomal recovery=45 mg protein/g liver • with liver weight=25.7 g liver/kg body weight
The percent hepatic blood flow (% Qh) is finally calculated by considering the human liver blood flow Q [ml/min/kg]: % Qh [%]=((Q*CL_UP_INT)/(Q+CL_UP_INT)/Q)*100 • with liver blood flow (Q)=20.7 ml/min/kg.

Human GSK3beta = Human GSK3beta (Homo sapiens (Human), UniProt P49841); experiment: GSK 3β Kinase-Test (Z'-LYTE); type: biochemical; details: comparison compounds, Example numbers of WO 2013/014060; read-out: IC50 in μM (GSK3beta-Inhibition)
Experimental: Human GSK3beta (expressed and prified from SF21 cells) is obtained from the University Dundee/Scotland (Dr. James Hastie—Dept. of Biochemistry) in 50 mM Tris (pH7.5); 150 mM NaCl; 0.1 mM EGTA, 270 mM Succrose, 0.1% B-mercaptoethanol, 1 mM benzamidine, 0.2 mM PMSF; sequence see below). The enzyme is diluted to 3.56 μM (168 μg/ml) in enzyme dilution buffer and 6 μl aliquots are stored at −80° C.
The activity of GSK3 kinase protein is measured using the Z′-LYTE™ assay technology from Invitrogen (# PV3324).
The assay is performed in 384 black plates from Corning (#3676) in a final volume of 10 μl by adding 5 μl of kinase peptide mix and 2.5 μl of compound dilution. The reaction is started by addition of 2.5 μl of the 4×ATP solution.
as §2, with “ATP.” for “kinase.”, “kinase and without ATP” for “kinase”, “control). The non inhibited kinase reaction will result in a phosphorylation corresponding to 20%-30% of the phosphorylation control.” for “control).”
The reaction is performed 1 h at room temperature. After 1 h 5 μl of the development solution is added. After a further incubation for 1 h at room temperature 5 μl of the stop reagent is added. Finally the plates are read on a Flex Station II 384 (Molecular Devices).
The output text file is evaluated in an “MS-Excel-VB-Makro” and “GraphPadPrism” (Version 5) (GraphPad Software Inc.) is used to calculate the results. Data for the inhibition of GSK3beta are reported in M. data for the inhibition of the protease are reported in % CTL.

[3] = biological target: Recombinant human Syk (amino acids 342-635) (Homo sapiens (Human), UniProt P43405); experiment: Syk Kinase Test (Kinase Glo luminescence); type: biochemical; details: comparison compounds, Example numbers of WO 2013/014060; read-out: IC50 in μM (SYK-Inhibition)
Experimental: as §1, with “measured relative light units (RLU).” for “measured RLU.”, “as 100%” for “as 0%”, “as 0%” for “as 100%”, “Calculation: [y=(a−d)/(1+(x/c)^b)+d]” for “Calculation: [y=(a−d)/(1+(x/c)^b)+d],”

Chain of FLT3 (P36888 564-958): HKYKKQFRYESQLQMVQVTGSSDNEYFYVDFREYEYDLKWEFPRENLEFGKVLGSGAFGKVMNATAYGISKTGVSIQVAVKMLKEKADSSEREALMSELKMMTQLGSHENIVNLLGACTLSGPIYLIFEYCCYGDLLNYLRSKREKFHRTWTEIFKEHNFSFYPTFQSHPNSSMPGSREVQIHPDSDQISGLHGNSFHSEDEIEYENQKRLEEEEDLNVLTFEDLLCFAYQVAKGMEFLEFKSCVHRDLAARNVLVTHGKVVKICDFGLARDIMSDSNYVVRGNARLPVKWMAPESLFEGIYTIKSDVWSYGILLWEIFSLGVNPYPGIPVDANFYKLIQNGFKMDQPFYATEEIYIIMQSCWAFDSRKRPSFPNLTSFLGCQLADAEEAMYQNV
Chain of Recombinant human Aurora B (amino acids 1-344) (Q96GD4 whole entry, the tested form may be a part): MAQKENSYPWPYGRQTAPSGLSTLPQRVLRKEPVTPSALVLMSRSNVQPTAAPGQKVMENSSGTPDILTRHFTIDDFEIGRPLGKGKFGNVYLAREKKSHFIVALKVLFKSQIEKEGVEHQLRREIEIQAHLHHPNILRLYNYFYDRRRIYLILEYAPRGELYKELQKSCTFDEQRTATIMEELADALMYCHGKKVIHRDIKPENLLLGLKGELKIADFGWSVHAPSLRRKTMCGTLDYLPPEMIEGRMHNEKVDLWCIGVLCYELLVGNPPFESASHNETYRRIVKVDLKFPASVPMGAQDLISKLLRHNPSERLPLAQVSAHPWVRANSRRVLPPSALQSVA
Chain of Human GSK3beta (P49841 whole entry): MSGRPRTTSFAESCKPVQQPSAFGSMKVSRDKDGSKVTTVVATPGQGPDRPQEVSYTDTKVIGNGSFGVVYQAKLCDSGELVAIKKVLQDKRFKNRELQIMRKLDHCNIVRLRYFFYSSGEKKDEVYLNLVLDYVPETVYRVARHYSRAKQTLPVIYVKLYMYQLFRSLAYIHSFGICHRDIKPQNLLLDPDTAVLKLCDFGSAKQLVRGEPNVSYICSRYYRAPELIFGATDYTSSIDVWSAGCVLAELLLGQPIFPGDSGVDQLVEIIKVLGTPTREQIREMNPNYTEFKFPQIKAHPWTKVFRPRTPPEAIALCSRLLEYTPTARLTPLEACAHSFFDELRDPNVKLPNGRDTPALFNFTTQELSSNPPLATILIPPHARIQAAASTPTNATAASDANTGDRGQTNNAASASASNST

## C[C@@H](Oc1nc(-c2cnn(C3CCC(F)(F)CC3)c2)cc2nn(C)cc12)[C@H]1CNC(=O)C1 [Example 10, (4R)-4-[(1R)-1-[6-[1-(4,4-Difluorocyclohexyl)pyrazol-4-yl]-2-methyl-pyrazolo[4,3-c]pyridin-4-yl]oxyethyl]pyrrolidin-2-one]
[1]
  IC50: 0.271 µM
FLT3
  IC50: 0.312 µM
[2]
  microsomal stability Cl [% Qh]: 57 % Qh
Human GSK3beta
  IC50: > 10 µM
[3]
  IC50: 0.001 µM

## Cc1c(-c2cc(O[C@H](C)[C@H]3CNC(=O)C3)c3cccnc3c2)cnn1C [compound 112]
[1]
  IC50: 2.96 µM
FLT3
  IC50: 1.25 µM
[2]
  microsomal stability Cl [% Qh]: <23 % Qh
Human GSK3beta
  IC50: > 10 µM
[3]
  IC50: 0.006 µM
